# Measurements: patent US20100240537A1, “Substituted 6-(alkylbenzylamino)purine derivatives for use as cytokinin receptor antagonists and preparations containing these derivatives” (priority 2007, published 2010)
# Tested on: A. thaliana wild-type and double receptor mutant seedlings
# Test: Lateral root formation of Arabidopsis seedlings
# Format: in vivo, Arabidopsis thaliana
# Details: 1 and 5 nM BA alone, MS medium
# Experimental: (A) Number of lateral roots formed by wild-type Arabidopsis seedlings (11 DAG)—from left: DMSO control, formation in the presence of cytokinin BA, or compound 8, and antagonism when both compounds were added. (B) Increase in number of lateral roots found with WT and double-receptor mutant seedlings grown on medium containing compound 8.
# Cytokinins are known as negative regulators of root growth and development. We grew A. thaliana wild-type and double receptor mutant seedlings with decreased perception of cytokinins on MS medium containing either 1 and 5 nM cytokinin BA to confirm the cytokinin inhibitory effect on initiation of lateral roots, or 1 and 10 nM compound 8, or combination of these substances in concentrations indicated in FIG. 4A.
smiles,measurement,value
c1ccc(CNc2ncnc3nc[nH]c23)cc1 [6-(benzylamino)purine],formation of lateral roots,inhibited formation of lateral roots
